{"source": "patent US20230104487A1", "about": "“11-(4-CHLOROPHENYL)-4-(2,3-DIHYDRO-1H-INDOLE-1-CARBONYL)-3,11-DIMETHYL-5,10,DIOXATRICYCLO[7.4.0.0,2,6,]TRIDECA-1,3,6,8-TETRAEN-13-ONE AND DERIVATIVES AS DESTABILIZER OF CRY1 FOR THE TREATMENT OF CIRCADIAN RHYTHM ASSOCIATED DISEASES AND DISORDERS” (KOC UNIVERSITESI, priority 2019, published 2023)", "key": {"[1]": {"target": "T1, CRY1-T5 (PHR domain of CRY1) (Mus musculus, UniProt P97784)", "T1 construct": "CRY1-T5 (the lack of 100 amino acids from C-terminal end); expressed in transfected cells; host or cells: HEK293T (lysate)", "T1 sequence (P97784 1-506 limits assumed)": "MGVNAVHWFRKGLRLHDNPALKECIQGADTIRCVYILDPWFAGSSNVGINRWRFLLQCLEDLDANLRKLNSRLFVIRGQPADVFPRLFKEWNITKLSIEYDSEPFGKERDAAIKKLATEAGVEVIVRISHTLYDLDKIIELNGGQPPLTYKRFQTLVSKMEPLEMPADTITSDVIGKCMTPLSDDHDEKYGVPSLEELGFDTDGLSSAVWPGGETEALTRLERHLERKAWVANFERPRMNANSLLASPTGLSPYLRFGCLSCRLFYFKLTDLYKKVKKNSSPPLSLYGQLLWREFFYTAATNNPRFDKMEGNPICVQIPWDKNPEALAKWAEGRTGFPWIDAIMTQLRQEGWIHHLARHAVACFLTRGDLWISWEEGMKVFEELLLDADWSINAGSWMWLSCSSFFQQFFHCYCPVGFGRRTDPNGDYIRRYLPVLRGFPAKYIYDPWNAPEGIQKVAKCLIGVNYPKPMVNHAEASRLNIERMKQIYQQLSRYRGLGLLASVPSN", "test": "Pull-down assay with biotinylated molecule, CRY1-T5", "type": "binding", "conditions": "CRY1 lacking 100 C-terminal amino acids", "procedure": "10 μg of Cry1-pcDNA4, Cry2-pcDNA4 or Cry1-T5-pcDNA4 plasmids expressing His and Myc at the C-terminal of CRYs were transfected to HEK293T cell. After 48 h of transfection cells were harvested and lysed in lysis buffer (50 mM Tris pH 7.4, 2 mM EDTA, 1 mM MgCl2, 0.2% NP-40 (v/v), 0.1% sodium deoxycholate (w/v), 1 mM sodium orthovanadate, 1 mM sodium fluoride, and protease inhibitor cocktail (Thermo Scientific)). Lysates were incubated for 10 minutes on ice then mixed gently and incubated for another 10 minutes on ice. Then lysate was centrifuged for 10 minutes at 7000 g at 4° C. 5% of the supernatant was kept for input analysis. Remaining supernatant was divided to three and mixed with 2×binding buffer (100 mM Tris-HCl pH 7.4, 300 mM NaCl, 0.2% NP-40 (v/v), 2 mM sodium orthovanadate, 2 mM sodium fluoride, and protease inhibitor) with 1:1 ratio, incubated with rotation having either of these: a) DMSO, b) biotinylated molecule, c) biotinylated molecule and the competitor for 2 h. During this period NeutrAvidin Agarose resin (Thermo Scientific) was equilibrated with lysis buffer by mixing for 5 minutes via rotation at 4° C. three times. After each mix period, resins were centrifuged at 2500 g at 4° C. for 2 minutes and supernatant was discarded. […] Pulled-down samples were analyzed via western blot."}, "U2-OS Bmal1-dLuc cells": {"system": "U2-OS Bmal1-dLuc cells", "test": "Real-time monitoring of circadian rhythm, U2-OS Bmal1-dLuc", "type": "cell-based, human", "procedure": "This assay was performed with two different equipment: Synergy H1 (BioTek) with 96-well plate and LumiCycle luminometer (Actimetrics) with 35 mm plates. Initial screening of molecules to determine their effect on the circadian period was performed in 96-well plate via Synergy H1. Clear 35-mm plates are used in LumiCycle luminometer which provides high resolution data describing the circadian oscillation. For 96-plate tests, 50000 U2-OS Bmal1-dLuc cells were seeded on an opaque 96-well plate and cultured overnight. Next day cells were reset by adding dexamethasone (DXM) ([…] final) for 2 h. Then medium is changed to bioluminescence recording media which contains the following in 1 L: DMEM powder (sigma D-2902, 10×1 L), 0.35 gr sodium bi-carbonate (tissue culture grade, sigma S5761), 3.5 gr D (+) glucose powder (tissue culture grade, sigma G7021), 10 mL 1M HEPES buffer (Gibco 15140-122), 2.5 mL Pen/Strep (100 ug/ml), 50 mL 5% FBS and up to 1 L sterile milliQ water. Luciferin is added freshly with 0.1 mM final concentration. Molecules were added to the bioluminescence recording media at desired concentration (0.5% final DMSO concentration). Plates were sealed with optically clear film to prevent evaporation and gas exchange thereby to maintain homeostasis of the cells.\nLuminescence values were recorded at 32° C. for each 30 minutes with 15 seconds integration time via Synergy H1 luminometer for a week. For LumiCycle, 400×10^3 U2-OS Bmal1-dLuc or NIH3T3 mPer2-dLuc cells were seeded to 35 mm plates and then procedure given above was followed with a change in the last step. Plates were sealed with vacuum grease and placed to LumiCycle. Each plate was recorded continuously every 10 minutes for 70 seconds at 37° C. via photomultiplier tubes. Period and amplitude data were obtained from LumiCycle Analysis software. To detect the effect of FORMULA I in the absence of CRYs, Cry1^−/−/Cry2^−/− mouse embryonic fibroblasts (CRYDKO MEFs) transiently transfected with pGL3-Per2-Luc (luciferase reporter) were used. 3×10^5 CRYDKO cells were seeded in 35 mm clear plates. Next day, cells were transfected with 4000 ng pGL3-Per2-Luc via Fugene6 transfection reagent according to the manufacturer's instruction. In short, 3:1 ratio of Fugene6 in μl against transfected DNA amount in μg was kept in transfections. 72 h after transfection cells were synchronized with DXM for two hours. Then, medium was changed with lumicycle medium having DMSO or molecule, sealed with vacuum grease, and placed to LumiCycle."}}, "note": "Entries after “also recorded” stand apart in the source; their conditions may differ."}
{"molecule": "Cc1c(C(=O)N2CCc3ccccc32)oc2ccc3c(c12)C(=O)CC(C)(c1ccc(Cl)cc1)O3", "note": "(centres unmarked) [FORMULA I, 11-(4-chlorophenyl)-4-(2,3-dihydro-1H-indole-1-carbonyl)-3,11-dimethyl-5,10,dioxatricyclo[7.4.0.0,2,6,]trideca-1,3,6,8-tetraen-13-one]", "values": [{"measurement": "binding to PHR domain (CRY1-T5 pull-down)", "setting": "[1]", "result": "bound to the PHR domain"}, {"measurement": "EC50", "setting": "U2-OS Bmal1-dLuc cells; Homo sapiens, U2OS, U2-OS Bmal1-dLuc, read-out: EC50 of period lengthening and rhythm dampening", "result": "~6.5", "unit": "µM"}, {"measurement": "activity / dose responsive effect on circadian rhythm", "setting": "U2-OS Bmal1-dLuc cells; U2-OS Bmal1-dLuc", "result": "showed the best dose responsive effect"}, {"measurement": "effect on amplitude of the rhythm", "setting": "U2-OS Bmal1-dLuc cells; dose-dependent", "result": "dampened the rhythm"}, {"measurement": "effect on period of circadian rhythm", "setting": "U2-OS Bmal1-dLuc cells; dose-dependent", "result": "significantly lengthened the period; also recorded: lengthened the circadian rhythm dose dependently"}]}
